Patent US20220362174A1, “Use of R-enantiomer Beta2-agonists for prevent and treatment of pulmonary inflammation and inflammatory remodeling for reduced adverse effects” (priority 2019, published 2022)

What was measured:
Assay type in all cases: cell-based
[1] = tested on: LPS-induced RAW264.7 cells; assay: M1/M2 macrophage polarization by flow cytometry; conditions: pretreated with (R)-salbutamol following incubation with ICI-118551, LPS
Description: (§1) Macrophages were treated without or with (R)/(S)-salbutamol for 1 h prior to LPS stimulation and subsequently incubated for 12 h. […] The fluorescence of the oxidized product (2′,7′-dichlorofluorescein, DCF) was assessed using an LSM710 Laser Scanning Confocal Microscope (Carl Zeiss, Jena, Germany). The concentration of NO in the culture supernatant was measured by assaying the concentrations of nitrite (a stable NO breakdown product) using the Griess assay (Beyotime, Shanghai, China), according to the manufacturer's instructions. The intracellular NO level was detected using the NO-sensitive fluorescence probe DAF-FM DA (Sigma, St. Louis, Mo., USA) (24). Cells were labeled with DAF-FM DA (10 μM) at 37° C. for 30 min and were gently washed three times with PBS. Fluorescence was detected using a LSM710 Laser Scanning Confocal Microscope (Scale bars, 100 μm) (Carl Zeiss, Jena, Germany).
Macrophages M1 (F4/80+/CD11c+/CD206−) and M2 (F4/80+/CD11c−/CD206+) polarization were analyzed using flow cytometry.

iNOS = iNOS mRNA and protein levels
Description: (§2) In addition, the concentration of NO in the culture supernatant was measured by assaying the concentrations of nitrite (a stable NO breakdown product) using the Griess assay. […] To investigate (R)-salbutamol role on the level of iNOS, the mRNA and protein levels of iNOS were determined.

[2] = tested on: LPS-induced RAW264.7 cells; assay: NO production (DAF-FM DA probe, Griess assay); conditions: treatment with ICI-118551 in (R)-salbutamol/LPS cells
Description: as §1, §2

[3] = tested on: LPS-induced RAW264.7 cells; assay: mRNA expression of TNF-α, IL-1β and MCP-1 by quantitative real-time PCR; conditions: ICI-118551-treated cells compared to the control group
Description: as §1
To examine the mRNA expression of TNF-α, IL-1β and MCP-1, quantitative real-time PCR was performed. Consistent with the cytokine expression study, the mRNA expression of TNF-α was increased by 2.26-fold in the LPS-induced group compared to the control group (FIG. 8D). The mRNA expression of IL-1β and MCP-1 increased by 12.74-fold (FIG. 8E) and 3.1-fold, respectively, in the LPS-induced group compared to the control group (FIG. 8F).

[4] = tested on: LPS-induced macrophages RAW264.7 cells; assay: Ratio of GSH/GSSG
Source text: The ratio of GSH to GSSG is a marker of oxidative stress.

[5] = tested on: LPS-induced RAW264.7 cells; assay: Seahorse analysis of OCR and ECAR
Description: as §1
Macrophage activation elicited different metabolic profiles. LPS-induced macrophages adopted glycolytic metabolic profiles. This invention disclosed a β2 adrenergic receptor mediated Warburg metabolism (aerobic glycolysis) of in LPS treated macrophages. The OCR and ECAR were measured using an extracellular flux analyzer. […] ECAR is a measurement extracellular acidification rate, an indication of cellular glycolytic rate.

Cc1ccc(OCC(O)C(C)NC(C)C)c2c1CCC2 (centres unmarked) [ICI-118551, reference compound]
percentage of M1 macrophages [1]: 55.8%
effects of (R)-salbutamol on iNOS when adding ICI-118551 (iNOS): blocked
NO levels [2]: increased NO levels
mRNA expression of IL-1β, increase [3]: 12.41 fold
mRNA expression of MCP-1, increase [3]: 3.36 fold
mRNA expression of TNF-α, increase [3]: 2.28 fold
effect of (R)-salbutamol on GSH/GSSG with ICI-118551 [4]: blocked
metabolism shift by (R)-salbutamol with ICI-118551 treatment [5]: blocked
